Data from US20250215030A1, “STAT MODULATORS AND USES THEREOF” (Recludix Pharma, Inc., priority 2022, published 2025).

Experiments:
[1] = molecular target: T1, Recombinant STAT3 protein (STAT3(G127-I722)) (Homo sapiens, UniProt P40763); test: STAT3 Fluorescence Polarization (FP) Assay; assay type: binding; settings: STAT3(G127-I722) 25 nM, probe 5-FAM-GpYLPQTV-NH2 2 nM, 45-minute incubation
T1 construct: STAT3(G127-I722)
Experimental: STAT3 Fluorescence Polarization (FP) Assay
An FP assay was developed to determine IC50 values for test substances. Recombinant STAT3 protein (STAT3(G127-I722)) at 25 nM was combined with a fluorescently labeled, phosphotyrosine peptide probe (5-FAM-GpYLPQTV-NH2) at 2 nM in FP buffer (10 mM HEPES pH 7.4, 50 mM NaCl, 1 mM EDTA, 0.05% Tween 20, 2 mM DTT). 50 μL of STAT3-probe mixture was added to serial diluted compounds in black, 96-well plates (Greiner BioOne 655076) to a final concentration of 1% DMSO. Reaction components were mixed, and FP was measured after 45-minute incubation at room temperature using a Tecan Spark multimode plate reader. FP signal (mP) was plotted against the log concentration of the test substances and IC50 values were calculated by nonlinear regression analysis using GraphPad Prism software. For STAT3 FP assay, A=≤100 nM; B=>100-1000 nM; C=>1-10 μM; and D=>10 μM.

[2] = molecular target: T2, Recombinant STAT6 protein (STAT6(W123-T658)) (Homo sapiens, UniProt P42226); test: STAT6 Fluorescence Polarization (FP) Assay; assay type: binding; settings: STAT6(W123-T658) 250 nM, probe 5-FAM-ApYKPFQDLI-NH2 2 nM, 45-minute incubation
T2 construct: STAT6(W123-T658)
T2 sequence (P42226 123-658): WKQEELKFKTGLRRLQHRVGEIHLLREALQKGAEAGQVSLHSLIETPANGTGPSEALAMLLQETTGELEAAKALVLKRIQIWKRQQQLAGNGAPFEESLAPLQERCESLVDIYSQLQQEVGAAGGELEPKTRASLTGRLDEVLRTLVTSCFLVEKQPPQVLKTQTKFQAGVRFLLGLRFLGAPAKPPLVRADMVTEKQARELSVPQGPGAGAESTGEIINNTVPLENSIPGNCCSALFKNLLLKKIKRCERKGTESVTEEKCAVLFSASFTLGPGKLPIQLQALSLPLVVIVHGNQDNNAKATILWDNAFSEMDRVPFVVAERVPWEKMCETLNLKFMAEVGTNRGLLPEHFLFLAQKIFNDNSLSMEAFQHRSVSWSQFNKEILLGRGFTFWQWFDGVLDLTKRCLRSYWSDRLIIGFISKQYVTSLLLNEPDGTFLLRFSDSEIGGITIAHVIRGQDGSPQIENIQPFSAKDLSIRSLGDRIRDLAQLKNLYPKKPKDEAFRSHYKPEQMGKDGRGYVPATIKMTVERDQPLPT
Experimental: STAT6 Fluorescence Polarization (FP) Assay
An FP assay was developed to determine IC50 values for test substances. Recombinant STAT6 protein (STAT6(W123-T658)) at 250 nM was combined with a fluorescently labeled, phosphotyrosine peptide probe (5-FAM-ApYKPFQDLI-NH2) at 2 nM in FP buffer (10 mM HEPES pH 7.4, 50 mM NaCl, 1 mM EDTA, 0.05% Tween 20, 2 mM DTT). 50 μL of STAT6-probe mixture was added to serial diluted compounds in black, 96-well plates (Greiner BioOne 655076) to a final concentration of 1% DMSO. Reaction components were mixed, and FP was measured after 45-minute incubation at room temperature using a Tecan Spark multimode plate reader. FP signal (mP) was plotted against the log concentration of the test substances and IC50 values were calculated by nonlinear regression analysis using GraphPad Prism software. For STAT6 FP assay, A=≤300 nM; B=>300-3000 nM; C=>3-30 μM; and D=>30 μM.

T1 sequence (P40763 127-722, species assumed): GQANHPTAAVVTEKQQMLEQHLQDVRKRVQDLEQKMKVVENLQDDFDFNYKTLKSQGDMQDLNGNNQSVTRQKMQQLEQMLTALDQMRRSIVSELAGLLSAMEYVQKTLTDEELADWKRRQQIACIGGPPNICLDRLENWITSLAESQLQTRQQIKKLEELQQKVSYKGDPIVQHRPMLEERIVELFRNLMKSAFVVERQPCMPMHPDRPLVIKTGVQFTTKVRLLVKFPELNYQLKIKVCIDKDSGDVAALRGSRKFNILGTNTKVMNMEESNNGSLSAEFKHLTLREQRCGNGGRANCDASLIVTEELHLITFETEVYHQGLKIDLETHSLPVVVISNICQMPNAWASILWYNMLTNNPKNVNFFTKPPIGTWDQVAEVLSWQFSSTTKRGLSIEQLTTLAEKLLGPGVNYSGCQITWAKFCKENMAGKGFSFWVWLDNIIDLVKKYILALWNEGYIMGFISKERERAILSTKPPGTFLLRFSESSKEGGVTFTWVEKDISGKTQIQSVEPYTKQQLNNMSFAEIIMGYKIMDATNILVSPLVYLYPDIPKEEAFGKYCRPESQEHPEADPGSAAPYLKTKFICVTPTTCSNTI

IC50 [1] [µM]	IC50 [2] [µM]	SMILES
< 0.1	0.3 to 3	N#CC1(c2ccccn2)CN(C(=O)[C@@H]2CC[C@@H]3C[C@@H]4C[C@@H]4C[C@H](NC(=O)c4cc5cc([C@H](F)P(=O)(O)O)ccc5s4)C(=O)N32)C1 (single isomer, unassigned) [Example 355]
< 0.1	3 to 30	CCc1ccncc1C1CN(C(=O)[C@@H]2CC[C@@H]3C[C@@H]4C[C@@H]4C[C@H](NC(=O)c4cc5cc([C@@H](F)P(=O)(O)O)ccc5s4)C(=O)N32)C1 (single isomer, unassigned) [Example 357]
< 0.1	3 to 30	N#CC1CN(c2ccncc2C2CN(C(=O)[C@@H]3CC[C@@H]4C[C@H]5C[C@H]5C[C@H](NC(=O)c5cc6cc([C@@H](F)P(=O)(O)O)ccc6s5)C(=O)N43)C2)C1 [Example 428, ((S)-(2-(((3S,6S,7aS,8aR,9aR)-3-(3-(4-(3-cyanoazetidin-1-yl)pyridin-3-yl)azetidine-1-carbonyl)-5-oxodecahydro-1H-cyclopropa[d]pyrrolo[1,2-a]azocin-6-yl)carbamoyl)benzo[b]thiophen-5-yl)fluoromethyl)phosphonic acid]
0.1 to 1	3 to 30	Cc1cc(C2CN(C(=O)[C@@H]3CC[C@@H]4C[C@H]5C[C@H]5C[C@H](NC(=O)c5cc6cc(C(F)P(=O)(O)O)ccc6s5)C(=O)N43)C2)on1 (stereo partly drawn) [Example 328, (fluoro(2-(((3S,6S,7aS,8aR,9aR)-3-(3-(3-methylisoxazol-5-yl)azetidine-1-carbonyl)-5-oxodecahydro-1H-cyclopropa[d]pyrrolo[1,2-a]azocin-6-yl)carbamoyl)benzo[b]thiophen-5-yl)methyl)phosphonic acid]
< 0.1	3 to 30	Cc1cc(C2CN(C(=O)[C@@H]3CC[C@@H]4C[C@H]5C[C@H]5C[C@H](NC(=O)c5cc6cc(C(F)P(=O)(O)O)ccc6s5)C(=O)N43)C2)no1 (stereo partly drawn) [Example 337, (fluoro(2-(((3S,6S,7aS,8aR,9aR)-3-(3-(5-methylisoxazol-3-yl)azetidine-1-carbonyl)-5-oxodecahydro-1H-cyclopropa[d]pyrrolo[1,2-a]azocin-6-yl)carbamoyl)benzo[b]thiophen-5-yl)methyl)phosphonic acid]
0.1 to 1	0.3 to 3	CC(=O)N1C[C@H](NC(=O)[C@@H]2CC[C@@H]3C[C@@H]4C[C@@H]4C[C@H](NC(=O)c4cc5cc(C(F)P(=O)(O)O)ccc5s4)C(=O)N32)[C@@H](F)C1 (stereo partly drawn) [Example 254, ((2-(((3S,6S,7aR,8aS,9aR)-3-(((3S,4S)-1-acetyl-4-fluoropyrrolidin-3-yl)carbamoyl)-5-oxodecahydro-1H-cyclopropa[d]pyrrolo[1,2-a]azocin-6-yl)carbamoyl)benzo[b]thiophen-5-yl)fluoromethyl)phosphonic acid]

Second part, the compound before the results:

SMILES	IC50 [1] [µM]	IC50 [2] [µM]
C[C@@]12C[C@H]3CC[C@@H](C(=O)N4CC(c5cccnc5)C4)N3C(=O)[C@@H](NC(=O)c3cc4cc(C(F)(F)P(=O)(O)O)ccc4s3)C[C@@H]1C2 [Example 230, (difluoro(2-(((3S,6S,7aS,8aR,9aR)-8a-methyl-5-oxo-3-(3-(pyridin-3-yl)azetidine-1-carbonyl)decahydro-1H-cyclopropa[d]pyrrolo[1,2-a]azocin-6-yl)carbamoyl)benzo[b]thiophen-5-yl)methyl)phosphonic acid]	< 0.1	0.3 to 3
O=C(N[C@H]1C[C@@H]2C[C@@H]2C[C@H]2CC[C@@H](C(=O)N[C@@H]3CCN(c4ccccc4)C3)N2C1=O)c1cc2cc(C(F)(F)P(=O)(O)O)ccc2s1 [Compound 52, (difluoro(2-(((3S,6S,7aS,8aR,9aR)-5-oxo-3-(((R)-1-phenylpyrrolidin-3-yl)carbamoyl)decahydro-1H-cyclopropa[d]pyrrolo[1,2-a]azocin-6-yl)carbamoyl)benzo[b]thiophen-5-yl)methyl)phosphonic acid]	0.1 to 1	0.3 to 3
O=C(N[C@H]1C[C@@H]2C[C@@H]2C[C@H]2CC[C@@H](C(=O)N[C@H]3CN(c4ncc[nH]4)C[C@@H]3F)N2C1=O)c1cc2cc(C(F)P(=O)(O)O)ccc2s1 (stereo partly drawn) [Example 339, (fluoro(2-(((3S,6S,7aS,8aR,9aR)-3-(((3S,4S)-4-fluoro-1-(1H-imidazol-2-yl)pyrrolidin-3-yl)carbamoyl)-5-oxodecahydro-1H-cyclopropa[d]pyrrolo[1,2-a]azocin-6-yl)carbamoyl)benzo[b]thiophen-5-yl)methyl)phosphonic acid]	< 0.1	0.3 to 3
COc1ccc(C2CCN(C(=O)[C@@H]3CC[C@@H]4C[C@H]5C[C@H]5C[C@H](NC(=O)c5cc6cc(C(F)(F)P(=O)(O)O)ccc6s5)C(=O)N43)C2)cn1 (stereo partly drawn) [Compound 88, (difluoro(2-(((3S,6S,7aS,8aR,9aR)-3-(3-(6-methoxypyridin-3-yl)pyrrolidine-1-carbonyl)-5-oxodecahydro-1H-cyclopropa[d]pyrrolo[1,2-a]azocin-6-yl)carbamoyl)benzo[b]thiophen-5-yl)methyl)phosphonic acid]	< 0.1	0.3 to 3
CN1CCN(c2ccncc2C2CN(C(=O)[C@@H]3CC[C@@H]4C[C@H]5C[C@H]5C[C@H](NC(=O)c5cc6cc([C@@H](F)P(=O)(O)O)ccc6s5)C(=O)N43)C2)CC1 (single isomer, unassigned) [Example 404]	< 0.1	> 30
N#CC1(c2ccccn2)CN(C(=O)[C@@H]2CC[C@@H]3C[C@@H]4C[C@@H]4C[C@H](NC(=O)c4cc5cc(C(F)(F)P(=O)(O)O)ccc5s4)C(=O)N32)C1 [Compound 70, ((2-(((3S,6S,7aR,8aS,9aR)-3-(3-cyano-3-(pyridin-2-yl)azetidine-1-carbonyl)-5-oxodecahydro-1H-cyclopropa[d]pyrrolo[1,2-a]azocin-6-yl)carbamoyl)benzo[b]thiophen-5-yl)difluoromethyl)phosphonic acid]	< 0.1	0.3 to 3
CC1(O)CCN(C2CN(C(=O)[C@@H]3CC[C@@H]4C[C@H]5C[C@H]5C[C@H](NC(=O)c5cc6cc(C(F)(F)P(=O)(O)O)ccc6s5)C(=O)N43)C2)CC1 [Compound 110, (difluoro(2-(((3S,6S,7aS,8aR,9aR)-3-(3-(4-hydroxy-4-methylpiperidin-1-yl)azetidine-1-carbonyl)-5-oxodecahydro-1H-cyclopropa[d]pyrrolo[1,2-a]azocin-6-yl)carbamoyl)benzo[b]thiophen-5-yl)methyl)phosphonic acid]	0.1 to 1	3 to 30
O=C(N[C@H]1C[C@@H]2C[C@@H]2C[C@H]2CC[C@@H](C(=O)N3CC(O)(c4ccccn4)C3)N2C1=O)c1cc2cc(C(F)(F)P(=O)(O)O)ccc2s1 [Compound 87, (difluoro(2-(((3S,6S,7aS,8aR,9aR)-3-(3-hydroxy-3-(pyridin-2-yl)azetidine-1-carbonyl)-5-oxodecahydro-1H-cyclopropa[d]pyrrolo[1,2-a]azocin-6-yl)carbamoyl)benzo[b]thiophen-5-yl)methyl)phosphonic acid]	< 0.1	3 to 30
COC1(c2nccn2C)CN(C(=O)[C@@H]2CC[C@@H]3C[C@@H]4C[C@@H]4C[C@H](NC(=O)c4cc5cc(C(F)(F)P(=O)(O)O)ccc5s4)C(=O)N32)C1 [Compound 75, (difluoro(2-(((3S,6S,7aR,8aS,9aR)-3-(3-methoxy-3-(1-methyl-1H-imidazol-2-yl)azetidine-1-carbonyl)-5-oxodecahydro-1H-cyclopropa[d]pyrrolo[1,2-a]azocin-6-yl)carbamoyl)benzo[b]thiophen-5-yl)methyl)phosphonic acid]	< 0.1	3 to 30
